Results reported in US9133115B2 (ACHILLION PHARMACEUTICALS, INC., priority 2008, dated 2015).

test system: HCV replicon; experiment: HCV replicon replication assay (NPT ELISA) in Huh-7 replicon-containing cells; format: cell-based; settings: Hepatitis C virus, 72 h; HCV replicon in Huh-7 cells, three days incubation; read-out: EC50
Procedure, shortened: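 Replication was scored by capture ELISA of neomycin phosphotransferase, whose level tracks replicon replication, after graded compound treatment. The cells were Huh-7 harbouring an HCV-IRES/neo/EMCV-IRES/NS3–NS5B/3′-NTR replicon, plated at 6000-7500 cells/well and dosed 24 h later at 60-70% confluence; interferon alpha was the positive control.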

**Q.** Which EC50 does the source give for `C=C[C@@H]1C[C@]1(NC(=O)[C@@H]1C[C@@H](Oc2cc(-c3ccccn3)nc3c4c(ccc23)OCC4)CN1C(=O)[C@@H](CC(=O)N1CCOCC1)C(C)(C)C)C(=O)NS(=O)(=O)C1CC1` [Compound 153, (2S,4R)-1-((S)-2-tert-butyl-4-morpholino-4-oxobutanoyl)-N-((1R,2S)-1-(cyclo-propylsulfonyl-carbamoyl)-2-vinylcyclopropyl)-4-(2-(pyridin-2-yl)-8,9-dihydrofuro[2,3-h]quinolin-4-yloxy)pyrrolidine-2-carboxamide] here?
**A.** < 1000 nM

**Q.** `C=C[C@@H]1C[C@]1(NC(=O)[C@@H]1C[C@@H](Oc2cc(-c3ccccc3)nc3cc(OC)ccc23)CN1C(=O)[C@@H](CC(=O)N1CCC(N(C)C)C1)C(C)(C)C)C(=O)NS(=O)(=O)C1CC1` (stereo partly drawn) [Compound 90, (2S,4R)-1-((2S)-2-tert-butyl-4-(3-(dimethylamino)pyr-rolidin-1-yl)-4-oxobutanoyl)-N-((1R,2S)-1-(cyclopropylsulfonyl-carbamoyl)-2-vinylcyclopropyl)-4-(7-methoxy-2-phenylquinolin-4-yloxy)pyrrolidine-2-carboxamide] was tested. Which EC50 did it give?
**A.** 1000 to 10000 nM

**Q.** For `C=C[C@@H]1C[C@]1(NC(=O)[C@@H]1C[C@@H](Oc2cc(-c3ccccn3)nc3cc(OC)ccc23)CN1C(=O)[C@@H](CC(=O)N1CCC(F)CC1)C(C)(C)C)C(=O)NS(=O)(=O)C1CC1` [Compound 218, (2S,4R)-1-((S)-2-tert-butyl-4-(4-fluoropiperidin-1-yl)-4-oxobutanoyl)-N-((1R)-1-(cyclo-propylsulfonyl-carbamoyl)-2-vinylcyclopropyl)-4-(7-methoxy-2-(pyridin-2-yl)quinolin-4-yloxy)pyrrolidine-2-carboxamide], which EC50 is on record?
**A.** < 1000 nM

**Q.** How did the EC50 turn out when `C=C[C@@H]1C[C@]1(NC(=O)[C@@H]1C[C@@H](Oc2cc(-c3csc(N(C)C)n3)nc3cc(OC)ccc23)CN1C(=O)[C@@H](CC(=O)N1CCOCC1)C(C)(C)C)C(=O)NS(=O)(=O)C1CC1` [Compound 138, (2S,4R)-1-((S)-2-tert-butyl-4-morpholino-4-oxobutanoyl)-N-((1R,2S)-1-(cyclo-propylsulfonyl-carbamoyl)-2-vinyl-cyclopropyl)-4-(2-(2-(dimethylamino)thiazol-4-yl)-7-methoxyquinolin-4-yloxy)pyrrolidine-2-carboxamide] was run?
**A.** < 1000 nM

**Q.** For `COc1ccc2c(O[C@@H]3C[C@@H](C(=O)NC4(C(=O)NS(=O)(=O)C5CC5)CCCC4)N(C(=O)[C@@H](CC(=O)N4CCCCC4)C(C)(C)C)C3)cc(-c3ccccc3)nc2c1` [Compound 98, (2S,4R)-1-((S)-2-tert-butyl-4-oxo-4-(piperidin-1-yl)butanoyl)-N-(1-(cyclopropylsulfonyl-carbamoyl)cyclo-pentyl)-4-(7-methoxy-2-phenylquinolin-4-yloxy)pyrrolidine-2-carboxamide], which EC50 is on record?
**A.** 1000 to 10000 nM

**Q.** `C=C[C@@H]1C[C@]1(NC(=O)[C@@H]1C[C@@H](Oc2cc(-c3ccccc3)nc3cc(OC)ccc23)CN1C(=O)[C@@H](CC(=O)N1CC2C3CCC(C)(O3)C2C1)C(C)(C)C)C(=O)NS(=O)(=O)C1CC1` (some centres unmarked) [Compound 170] was tested. Which EC50 did it give?
**A.** < 1000 nM

**Q.** `C=CC1C[C@]1(NC(=O)[C@@H]1C[C@@H](Oc2cc(-c3ccccc3)nc3cc(OC)ccc23)CN1C(=O)[C@@H](CC(=O)N1C(C)CCCC1C)C(C)(C)C)C(=O)NS(=O)(=O)C1CC1` (some centres unmarked) [Compound 163] was tested. Which EC50 did it give?
**A.** < 1000 nM

**Q.** With `C=C[C@@H]1C[C@]1(NC(=O)[C@@H]1C[C@@H](Oc2cc(-c3ccccc3)nc3cc(OC)ccc23)CN1C(=O)[C@@H](CC(=O)N1CCC1)C(C)(C)C)C(=O)NS(=O)(=O)C1CC1` [Compound 222, (2S,4R)-1-((S)-4-(azetidin-1-yl)-2-tert-butyl-4-oxobutanoyl)-N-((1R)-1-(cyclopropyl-sulfonylcarbamoyl)-2-vinylcyclopropyl)-4-(7-methoxy-2-phenylquinolin-4-yloxy)pyrrolidine-2-carboxamide] as the compound, how does the EC50 read?
**A.** < 1000 nM

**Q.** Which EC50 does the source give for `C=C[C@H]1C[C@]1(NC(=O)[C@@H]1C[C@@H](Oc2cc(-c3ccccc3)nc3cc(OC)ccc23)CN1C(=O)[C@@H](CC(=O)N1CCCCC1)C1CCCC1)C(=O)NS(=O)(=O)C1CC1` [Compound 86, (2S,4R)-1-((S)-2-cyclopentyl-4-oxo-4-(piperidin-1-yl)butanoyl)-N-((1R,2R)-1-(cyclo-propylsulfonyl-carbamoyl)-2-vinylcyclopropyl)-4-(7-methoxy-2-phenylquinolin-4-yloxy)pyrrolidine-2-carboxamide] here?
**A.** < 1000 nM

**Q.** Which EC50 does the source give for `C=CC1C[C@]1(NC(=O)[C@@H]1C[C@@H](Oc2cc(-c3ccccc3)nc3cc(OC)ccc23)CN1C(=O)[C@@H](CC(=O)N1CCCCC1)c1ccccc1)C(=O)NS(=O)(=O)C1CC1` (stereo partly drawn) [Compound 59, (2S,4R)-N-((1R,2R)-1-(cyclopropyl-sulfonylcarbamoyl)-2-vinylcyclopropyl)-4-(7-methoxy-2-phenylquinolin-4-yloxy)-1-((S)-4-oxo-2-phenyl-4-(piperidin-1-yl)butanoyl)pyr-rolidine-2-carboxamide] here?
**A.** < 1000 nM

**Q.** For `C=C[C@@H]1C[C@]1(NC(=O)[C@@H]1C[C@@H](Oc2cc(-c3ccccn3)nc3c(Cl)c(OC)ccc23)CN1C(=O)[C@@H](CC(=O)N1CCC(F)(F)CC1)C(C)(C)C)C(=O)NS(=O)(=O)C1CC1` [Compound 194, (2S,4R)-1-((S)-2-tert-butyl-4-(4,4-difluoropiperidin-1-yl)-4-oxobutanoyl)-4-(8-chloro-7-methoxy-2-(pyridin-2-yl)quinolin-4-yloxy)-N-((1R)-1-(cyclopropyl-sulfonylcarbamoyl)-2-vinyl-cyclopropyl)pyr-rolidine-2-carboxamide], which EC50 is on record?
**A.** < 1000 nM

**Q.** With `C=C[C@@H]1C[C@]1(NC(=O)[C@@H]1C[C@@H](Oc2cc(-c3ccccc3)nc3cc(OC)ccc23)CN1C(=O)[C@@H](CC(=O)N1CCCCC1)C(C)(C)C)C(=O)NS(=O)(=O)C1(CC)CC1` [Compound 145, (2S,4R)-1-((S)-2-tert-butyl-4-oxo-4-(piperidin-1-yl)butanoyl)-N-((1R,2S)-1-(1-ethylcyclopropyl-sulfonylcarbamoyl)-2-vinylcyclopropyl)-4-(7-methoxy-2-phenylquinolin-4-yloxy)pyrrolidine-2-carboxamide] as the compound, how does the EC50 read?
**A.** < 1000 nM

**Q.** `C=CC1CC1(NC(=O)[C@@H]1C[C@@H](Oc2cc(-c3ccccc3)nc3cc(OC)ccc23)CN1C(=O)[C@@H](CC(=O)N1CCCCC1C(N)=O)C(C)(C)C)C(=O)NS(=O)(=O)C1CC1` (stereo partly drawn) [Compound 42, 1-((3S)-3-((2S,4R)-2-(1-(cyclopropyl-sulfonyl-carbamoyl)-2-vinylcyclopropyl-carbamoyl)-4-(7-methoxy-2-phenylquinolin-4-yloxy)pyrrolidine-1-carbonyl)-4,4-dimethylpentano-yl)piperidine-2-carboxamide] was tested. Which EC50 did it give?
**A.** < 1000 nM

**Q.** How did the EC50 turn out when `C=C[C@@H]1C[C@]1(NC(=O)[C@@H]1C[C@@H](Oc2cc(-c3ccccc3)nc3cc(OC)ccc23)CN1C(=O)[C@@H](CC(=O)N1CCCCC1)C(C)(C)C)C(=O)NS(=O)(=O)C(C)(C)C` [Compound 65, (2S,4R)-1-((S)-2-tert-butyl-4-oxo-4-(piperidin-1-yl)butanoyl)-N-((1R,2S)-1-(tert-butylsulfonyl-carbamoyl)-2-vinylcyclopropyl)-4-(7-methoxy-2-phenylquinolin-4-yloxy)pyrrolidine-2-carboxamide] was run?
**A.** 1000 to 10000 nM

**Q.** For `C=C[C@@H]1C[C@]1(NC(=O)[C@@H]1C[C@@H](Oc2nc(-c3ccccn3)nc3cc(OC)ccc23)CN1C(=O)[C@@H](CC(=O)N1CCCCC1)C(C)(C)C)C(=O)NS(=O)(=O)C1CC1` [Compound 144, (2S,4R)-1-((S)-2-tert-butyl-4-oxo-4-(piperidin-1-yl)butanoyl)-N-((1R,2S)-1-(cyclo-propylsulfonyl-carbamoyl)-2-vinyl-cyclopropyl)-4-(7-methoxy-2-(pyridin-2-yl)quinazolin-4-yloxy)pyrrolidine-2-carboxamide], which EC50 is on record?
**A.** < 1000 nM

**Q.** How did the EC50 turn out when `C=CC1C[C@@]1(NC(=O)[C@@H]1C[C@@H](Oc2cc(-c3ccccc3)nc3cc(OC)ccc23)CN1C(=O)C[C@H](C(=O)N1CCCCC1)C(C)(C)C)C(=O)NS(=O)(=O)C1CC1` (stereo partly drawn) [Compound 39, (2S,4R)-N-(1-(cyclo-propylsulfonyl-carbamoyl)-2-vinylcyclopropyl)-1-((S)-4,4-dimethyl-3-(piperidine-1-carbonyl)pentano-yl)-4-(7-methoxy-2-phenylquinolin-4-yloxy)pyrrolidine-2-carboxamide] was run?
**A.** < 1000 nM

**Q.** Which EC50 does the source give for `C=C[C@@H]1C[C@]1(NC(=O)[C@@H]1C[C@@H](Oc2cc(-c3csc(N(C)C)n3)nc3cc(OC)ccc23)CN1C(=O)[C@@H](CC(=O)N1CCCCC1)C(C)(C)C)C(=O)NS(=O)(=O)C1CC1` [Compound 137, (2S,4R)-1-((S)-2-tert-butyl-4-oxo-4-(piperidin-1-yl)butanoyl)-N-((1R,2S)-1-(cyclo-propylsulfonyl-carbamoyl)-2-vinylcyclopropyl)-4-(2-(2-(dimethyl-amino)thiazol-4-yl)-7-methoxyquinolin-4-yloxy)pyrrolidine-2-carboxamide] here?
**A.** < 1000 nM

**Q.** How did the EC50 turn out when `C=C[C@@H]1C[C@]1(NC(=O)[C@H]1C[C@@H](Oc2cc(-c3ccccc3)nc3cc(OC)ccc23)CN1C(=O)[C@@H](CC(=O)N1CCCCC1)C(C)(C)C)C(=O)NS(=O)(=O)C1CC1` [Compound 213, (2R,4R)-1-((S)-2-tert-butyl-4-oxo-4-(piperidin-1-yl)butanoyl)-N-((1R)-1-(cyclo-propylsulfonyl-carbamoyl)-2-vinyl-cyclopropyl)-4-(7-methoxy-2-phenylquinolin-4-yloxy)pyrrolidine-2-carboxamide] was run?
**A.** < 1000 nM

same assay, conditions: Hepatitis C virus, Huh-7

**Q.** `C=CC1CC1(NC(=O)[C@@H]1C[C@@H](Oc2cc(-c3ccccc3)nc3cc(OC)ccc23)CN1C(=O)[C@@H](CC(=O)O)C(C)(C)C)C(=O)OCC` (stereo partly drawn) [Compound 11, (3S)-3-((2S,4R)-2-(1-(ethoxycarbonyl)-2-vinylcyclopropylcarbamoyl)-4-(7-methoxy-2-phenylquinolin-4-yloxy)pyrrolidine-1-carbonyl)-4,4-dimethylpentanoic acid] was tested. Which EC50 did it give?
**A.** ≤ 10000 nM

**Q.** With `C=CC1C[C@@]1(NC(=O)[C@@H]1C[C@@H](Oc2cc(-c3ccccc3)nc3cc(OC)ccc23)CN1C(=O)C[C@H](C(=O)N1CCCCC1)C(C)(C)C)C(=O)NS(=O)(=O)C1CC1` (stereo partly drawn) [Compound 39, (2S,4R)-N-(1-(cyclo-propylsulfonyl-carbamoyl)-2-vinylcyclopropyl)-1-((S)-4,4-dimethyl-3-(piperidine-1-carbonyl)pentano-yl)-4-(7-methoxy-2-phenylquinolin-4-yloxy)pyrrolidine-2-carboxamide] as the compound, how does the EC50 read?
**A.** ≤ 10000 nM
